≈ marks a conversion by molar mass, not a printed value.
What was measured:
Staphylococcus aureus [1] = experiment: (§1) Antimicrobial activity against Staphylococcus aureus 8325 by serial dilution method; assay type: functional
Staphylococcus aureus [2] = experiment: Antimicrobial activity against methicillin-resistant Staphylococcus aureus N315 IR94-HR-1 by serial dilution method; assay type: functional
Staphylococcus aureus [3] = experiment: Antimicrobial activity against Staphylococcus aureus ISP217 by serial dilution method; assay type: functional
Staphylococcus aureus [4] = experiment: Antimicrobial activity against Staphylococcus aureus ISP447 by serial dilution method; assay type: functional
Escherichia coli = experiment: Antimicrobial activity against Escherichia coli NIHJ JC-2 by serial dilution method; assay type: functional
Staphylococcus aureus [5] = experiment: Antimicrobial activity against methicillin-resistant Staphylococcus aureus 70 by serial dilution method; assay type: functional
Enterococcus faecium = experiment: Antimicrobial activity against vancomycin-resistant Enterococcus faecium NCTC-12203 by serial dilution method
Staphylococcus aureus [6] = experiment: Antimicrobial activity against Staphylococcus aureus Smith by serial dilution method; assay type: functional
Staphylococcus aureus [7] = experiment: Antimicrobial activity against methicillin-resistant Staphylococcus aureus N315 IR94 by serial dilution method; assay type: functional
Enterococcus faecalis = experiment: Antimicrobial activity against vancomycin-resistant Enterococcus faecalis NCTC-12201 by serial dilution method; assay type: functional
Staphylococcus aureus [8] = experiment: Antimicrobial activity against Staphylococcus aureus FDA209P by serial dilution method; assay type: functional
Staphylococcus aureus [9] = experiment: as §1; assay type: functional; remark: listed apart in the source
Staphylococcus aureus [10] = experiment: Antimicrobial activity against methicillin-resistant Staphylococcus aureus 92-1191 by serial dilution method; assay type: functional

Structure (SMILES) | MIC (Staphylococcus aureus [1]) [µg/mL] | MIC (Staphylococcus aureus [2]) [µg/mL] | MIC (Staphylococcus aureus [3]) [µg/mL] | MIC (Staphylococcus aureus [4]) [µg/mL] | MIC (Escherichia coli) [µg/mL] | MIC (Staphylococcus aureus [5]) [µg/mL] | MIC (Enterococcus faecium) [µg/mL] | MIC (Staphylococcus aureus [6]) [µg/mL] | MIC (Staphylococcus aureus [7]) [µg/mL] | MIC (Enterococcus faecalis) [µg/mL] | MIC (Staphylococcus aureus [8]) [µg/mL] | MIC (Staphylococcus aureus [9]) [µg/mL] | MIC (Staphylococcus aureus [10]) [µg/mL]
CC[C@H]1OC(=O)[C@H](C)[C@@H](O[C@H]2C[C@@](C)(OC)[C@@H](OC=O)[C@H](C)O2)[C@H](C)[C@@H](O[C@@H]2O[C@H](C)C[C@H](N(C)C)[C@H]2OC(C)=O)[C@@]2(C)CC(C)=C(O2)[C@H](C)[C@@H](OC(=O)C(C)C)[C@]1(C)OC(=O)C(C)C | 32 (≈ 34.6 µM) | 16 (≈ 17.3 µM) | 16 (≈ 17.3 µM) | 16 (≈ 17.3 µM) | > 128 | 16 (≈ 17.3 µM) | 32 (≈ 34.6 µM) | 16 (≈ 17.3 µM) | 16 (≈ 17.3 µM) | 32 (≈ 34.6 µM) | 16 (≈ 17.3 µM) | 16 (≈ 17.3 µM) | 
CC[C@H]1OC(=O)[C@H](C)[C@@H](OCc2cn(-c3cccc4ccccc34)nn2)[C@H](C)[C@@H](O[C@@H]2O[C@H](C)C[C@H](N(C)C)[C@H]2O)[C@@]2(C)CC(C)=C(O2)[C@H](C)[C@@H](OC(=O)C(C)C)[C@]1(C)OC(=O)C(C)C | 64 (≈ 70.7 µM) | 16 (≈ 17.7 µM) | 16 (≈ 17.7 µM) | 32 (≈ 35.4 µM) | > 128 | 16 (≈ 17.7 µM) | 16 (≈ 17.7 µM) | 64 (≈ 70.7 µM) | 16 (≈ 17.7 µM) | 32 (≈ 35.4 µM) | 32 (≈ 35.4 µM) | 16 (≈ 17.7 µM) | 32 (≈ 35.4 µM)
CC[C@H]1OC(=O)[C@H](C)[C@@H](OCc2cn(CCO)nn2)[C@H](C)[C@@H](O[C@@H]2O[C@H](C)C[C@H](N(C)C)[C@H]2O)[C@@]2(C)CC(C)=C(O2)[C@H](C)[C@@H](OC(=O)C(C)C)[C@]1(C)OC(=O)C(C)C | 128 (≈ 156 µM) | 64 (≈ 77.8 µM) | 128 (≈ 156 µM) | > 128 | > 128 | 64 (≈ 77.8 µM) | 64 (≈ 77.8 µM) | > 128 | 64 (≈ 77.8 µM) | 128 (≈ 156 µM) | 64 (≈ 77.8 µM) | 64 (≈ 77.8 µM) | 128 (≈ 156 µM)
CC[C@H]1OC(=O)[C@H](C)[C@@H](O)[C@H](C)[C@@H](O[C@@H]2O[C@H](C)C[C@H](N(C)C)[C@H]2OC(C)=O)[C@@]2(C)CC(C)=C(O2)[C@H](C)[C@@H](OC(=O)C(C)C)[C@]1(C)OC(=O)C(C)C | 128 (≈ 173 µM) | 64 (≈ 86.5 µM) | 64 (≈ 86.5 µM) | 128 (≈ 173 µM) | > 128 | 64 (≈ 86.5 µM) | 64 (≈ 86.5 µM) | > 128 | 64 (≈ 86.5 µM) | 64 (≈ 86.5 µM) | 64 (≈ 86.5 µM) | 64 (≈ 86.5 µM) | 64 (≈ 86.5 µM)
CC[C@H]1OC(=O)[C@H](C)[C@@H](OCc2cn(CC(=O)O)nn2)[C@H](C)[C@@H](O[C@@H]2O[C@H](C)C[C@H](N(C)C)[C@H]2O)[C@@]2(C)CC(C)=C(O2)[C@H](C)[C@@H](OC(=O)C(C)C)[C@]1(C)OC(=O)C(C)C | > 128 |  | > 128 | > 128 | > 128 |  | > 128 | > 128 |  | > 128 | > 128 | > 128 | 
CC[C@H]1OC(=O)[C@H](C)[C@@H](OCc2cn(-c3cnc4ccccc4c3)nn2)[C@H](C)[C@@H](O[C@@H]2O[C@H](C)C[C@H](N(C)C)[C@H]2O)[C@@]2(C)CC(C)=C(O2)[C@H](C)[C@@H](OC(=O)C(C)C)[C@]1(C)OC(=O)C(C)C | 32 (≈ 35.3 µM) | 16 (≈ 17.7 µM) | 16 (≈ 17.7 µM) | 32 (≈ 35.3 µM) | > 128 | 16 (≈ 17.7 µM) | 16 (≈ 17.7 µM) | 32 (≈ 35.3 µM) | 8 (≈ 8.83 µM) | 32 (≈ 35.3 µM) | 16 (≈ 17.7 µM) | 8 (≈ 8.83 µM) | 16 (≈ 17.7 µM)
CC[C@H]1OC(=O)[C@H](C)[C@@H](OCc2cn(Cc3ccccc3)nn2)[C@H](C)[C@@H](O[C@@H]2O[C@H](C)C[C@H](N(C)C)[C@H]2O)[C@@]2(C)CC(C)=C(O2)[C@H](C)[C@@H](OC(=O)C(C)C)[C@]1(C)OC(=O)C(C)C | 16 (≈ 18.4 µM) | 8 (≈ 9.2 µM) | 16 (≈ 18.4 µM) | 16 (≈ 18.4 µM) | > 128 | 16 (≈ 18.4 µM) | 16 (≈ 18.4 µM) | 32 (≈ 36.8 µM) | 8 (≈ 9.2 µM) | 16 (≈ 18.4 µM) | 16 (≈ 18.4 µM) | 8 (≈ 9.2 µM) | 16 (≈ 18.4 µM)
CC[C@H]1OC(=O)[C@H](C)[C@@H](O[C@H]2C[C@@](C)(OC)[C@@H](O)[C@H](C)O2)[C@H](C)[C@@H](O[C@@H]2O[C@H](C)C[C@H](N(C)C)[C@H]2O)[C@](C)(O)C[C@@H](C)C(=O)[C@H](C)[C@@H](O)[C@]1(C)O [ERYTHROMYCIN] | 64 (≈ 87.2 µM) |  | > 256 | > 256 | > 256 |  | > 256 | ≤ 0.5 |  | > 256 | ≤ 0.5 | > 256 | > 128
